Results as given in PubChem BioAssay AID330 (DTP/NCI, 2004).
“And” between values parts separate entries of the source, which are not always exact repeats. Equal values may be shown once. Toxic doses and inconclusive results are not listed. How the source made its calls: active means survival T/C of 150% or more; inactive means T/C below 125% in these data. Peptide text beside a SMILES is read from it.

Tested on: P388 leukemia ip, CD2F1 mice, survival T/C
Test: NCI In Vivo Anticancer Drug Screen. Data for tumor model P388 Leukemia (intraperitoneal) in CD2F1 (CDF1) mice
Settings: endpoint: median survival time, higher = longer survival
In short: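 Mice carrying the transplanted tumor received test compound or vehicle. Survival was recorded in each group, and the value is the treated-group measurement divided by that of the vehicle-treated control group.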

[1] = dose: 100.0 mg/kg/injection, schedule: Q04DX003 (ip), vehicle: saline
[2] = dose: 200.0 mg/kg/injection, schedule: Q04DX003 (ip), vehicle: saline
[3] = dose: 400.0 mg/kg/injection, schedule: Q04DX003 (ip), vehicle: saline
[4] = dose: 50.0 mg/kg/injection, schedule: Q01DX005 (ip), vehicle: saline with Tween-80
[5] = dose: 100.0 mg/kg/injection, schedule: Q01DX005 (ip), vehicle: saline with Tween-80
[6] = dose: 200.0 mg/kg/injection, schedule: Q01DX005 (ip), vehicle: saline with Tween-80
[7] = dose: 25.0 mg/kg/injection, schedule: Q01DX009 (ip), vehicle: distilled water + Tween-80
[8] = dose: 50.0 mg/kg/injection, schedule: Q01DX009 (ip), vehicle: distilled water + Tween-80
[9] = dose: 100.0 mg/kg/injection, schedule: Q01DX009 (ip), vehicle: distilled water + Tween-80
[10] = dose: 200.0 mg/kg/injection, schedule: Q01DX009 (ip), vehicle: distilled water + Tween-80
[11] = dose: 100.0 mg/kg/injection, schedule: Q01DX009 (ip), vehicle: saline
[12] = dose: 200.0 mg/kg/injection, schedule: Q01DX009 (ip), vehicle: saline
[13] = dose: 50.0 mg/kg/injection, schedule: Q01DX009 (ip), vehicle: saline with Tween-80
[14] = dose: 100.0 mg/kg/injection, schedule: Q01DX009 (ip), vehicle: saline with Tween-80
[15] = dose: 200.0 mg/kg/injection, schedule: Q01DX009 (ip), vehicle: saline with Tween-80

Measured: T/C

CC1(C)CC2CCCCN2CO1 (configuration not stated)
inactive: dose: 50.0 mg/kg/injection, schedule: Q01DX005 (ip), vehicle: saline 112 % of control | dose: 100.0 mg/kg/injection, schedule: Q01DX005 (ip), vehicle: saline 108 % of control

CC1=C2CC/C(C)=C/CCC3(C)OC3CC/C(C)=C/C2OC1=O (configuration not stated)
inactive: dose: 1.25 mg/kg/injection, schedule: Q01DX009 (ip), vehicle: other 118 % of control | dose: 2.0 mg/kg/injection, schedule: Q01DX009 (ip), vehicle: Klucel (hydroxypropylcellulose) (HPC) 91 % of control | dose: 2.5 mg/kg/injection, schedule: Q01DX009 (ip), vehicle: other 105 % of control | dose: 4.0 mg/kg/injection, schedule: Q01DX009 (ip), vehicle: Klucel (hydroxypropylcellulose) (HPC) 89 % of control | dose: 5.0 mg/kg/injection, schedule: Q01DX009 (ip), vehicle: other 112 % of control | dose: 10.0 mg/kg/injection, schedule: Q01DX009 (ip), vehicle: saline with Tween-80 92 % of control | dose: 16.0 mg/kg/injection, schedule: Q01DX009 (ip), vehicle: Klucel (hydroxypropylcellulose) (HPC) 94 % of control | dose: 20.0 mg/kg/injection, schedule: Q01DX009 (ip), vehicle: saline with Tween-80 89 % of control | dose: 32.0 mg/kg/injection, schedule: Q01DX009 (ip), vehicle: Klucel (hydroxypropylcellulose) (HPC) 94 % of control | dose: 40.0 mg/kg/injection, schedule: Q01DX009 (ip), vehicle: saline with Tween-80 108 % of control

COC(=O)C(C(=O)OC)=S1C=CC=C1
inactive: [1] 106 % of control | [2] 100 % of control | [3] 106 % of control

CC(=O)O.[Cd]
inactive: dose: 1.25 mg/kg/injection, schedule: Q01DX009 (ip), vehicle: saline 95 % of control | dose: 1.25 mg/kg/injection, schedule: Q04DX003 (ip), vehicle: saline 90 % of control | dose: 2.5 mg/kg/injection, schedule: Q01DX009 (ip), vehicle: saline 100 % of control | dose: 2.5 mg/kg/injection, schedule: Q04DX003 (ip), vehicle: saline 90 % of control | dose: 5.0 mg/kg/injection, schedule: Q01DX009 (ip), vehicle: saline 100 % of control | dose: 5.0 mg/kg/injection, schedule: Q04DX003 (ip), vehicle: saline 95 % of control

COC(=O)n1nc(C)c(N(C)C)n1
inactive: [4] 99 % of control | [5] 106 % of control | [6] 113 % of control

COc1ccc2ccc(CCC(=O)O)cc2c1
inactive: dose: 12.5 mg/kg/injection, schedule: Q01DX009 (ip), vehicle: distilled water + Tween-80 100 % of control | [7] 100 % of control | [8] 94 % of control | [9] 99 % of control | [10] 108 % of control

Cc1cc(OC2OC(CO)C(O)C(O)C2O)ccc1O (configuration not stated)
inactive: dose: 25.0 mg/kg/injection, schedule: Q01DX009 (ip), vehicle: Klucel (hydroxypropylcellulose) (HPC) 87 % of control | dose: 50.0 mg/kg/injection, schedule: Q01DX009 (ip), vehicle: Klucel (hydroxypropylcellulose) (HPC) 96 % of control | dose: 200.0 mg/kg/injection, schedule: Q01DX009 (ip), vehicle: Klucel (hydroxypropylcellulose) (HPC) 89 % of control

NC(CCC(=O)O)C(=O)NC(Cc1ccc(O)cc1)C(=O)NC(CCC(=O)O)C(=O)O (stereo not drawn) (H-Glu-Tyr-Glu-OH; configuration not given here)
inactive: dose: 50.0 mg/kg/injection, schedule: Q01DX005 (ip), vehicle: Klucel (hydroxypropylcellulose) (HPC) 93 % of control | dose: 100.0 mg/kg/injection, schedule: Q01DX005 (ip), vehicle: Klucel (hydroxypropylcellulose) (HPC) 100 % of control | dose: 200.0 mg/kg/injection, schedule: Q01DX005 (ip), vehicle: Klucel (hydroxypropylcellulose) (HPC) 98 % of control

CCCC(C)Br (configuration not stated)
inactive: [11] 109 % of control | [12] 114 % of control | dose: 400.0 mg/kg/injection, schedule: Q01DX009 (ip), vehicle: saline 115 % of control

Cc1ccc2ccccc2[n+]1CC(=O)c1ccc2c(c1)OCO2
inactive: [4] 110 % of control | [5] 105 % of control | [6] 103 % of control

CCOC(=O)c1ccc(NC(=O)Nc2nc3ccc(OC)cc3s2)cc1
inactive: [7] 91 % of control | [8] 89 % of control | [9] 91 % of control | [10] 89 % of control | dose: 400.0 mg/kg/injection, schedule: Q01DX009 (ip), vehicle: distilled water + Tween-80 89 % of control

Cc1cc(C)cc(C(=O)N=C(c2ccncc2)c2nc(-c3ccccc3)oc2O)c1
inactive: dose: 60.0 mg/kg/injection, schedule: Q01DX005 (ip), vehicle: saline with Tween-80 88 % of control | dose: 120.0 mg/kg/injection, schedule: Q01DX005 (ip), vehicle: saline with Tween-80 86 % of control | dose: 240.0 mg/kg/injection, schedule: Q01DX005 (ip), vehicle: saline with Tween-80 88 % of control

Cc1ccccc1C1NC(c2ccccc2C)C2CCCC1C2=O (configuration not stated)
inactive: [1] 89 % of control | [2] 96 % of control | [3] 93 % of control

CCCCCCCCCCCCCCCCCSCc1ccc(Nc2ccccc2)cc1
inactive: dose: 25.0 mg/kg/injection, schedule: Q01DX009 (ip), vehicle: saline with Tween-80 108 % of control | dose: 50.0 mg/kg/injection, schedule: Q01DX009 (ip), vehicle: other 116 % of control | [13] 103 % of control and 108 % of control | dose: 100.0 mg/kg/injection, schedule: Q01DX009 (ip), vehicle: other 116 % of control | [14] 103 % of control | dose: 200.0 mg/kg/injection, schedule: Q01DX009 (ip), vehicle: other 118 % of control | [15] 116 % of control and 93 % of control

Cc1cc(N)c(C)c2ccncc12
inactive: dose: 0.63 mg/kg/injection, schedule: Q01DX009 (ip), vehicle: saline with Tween-80 100 % of control | dose: 1.25 mg/kg/injection, schedule: Q01DX009 (ip), vehicle: saline with Tween-80 90 % of control | dose: 2.5 mg/kg/injection, schedule: Q04DX003 (ip), vehicle: saline with Tween-80 104 % of control

O=C(NCc1ccccn1)c1ccccc1
inactive: dose: 50.0 mg/kg/injection, schedule: Q01DX009 (ip), vehicle: saline 103 % of control | [11] 90 % of control | [12] 100 % of control

ClC1=CC(Cl)=C2N=C(N3CCCC3)N=C3N=C(C(Cl)(Cl)Cl)N=C1N32
inactive: dose: 60.0 mg/kg/injection, schedule: Q01DX005 (ip), vehicle: Klucel + Tween-80 96 % of control | dose: 120.0 mg/kg/injection, schedule: Q01DX005 (ip), vehicle: Klucel + Tween-80 96 % of control | dose: 240.0 mg/kg/injection, schedule: Q01DX005 (ip), vehicle: Klucel + Tween-80 87 % of control

CCCCCCCCCCCCCCCC(=O)NCC(=O)NC1C(CO)OC(Nc2ncnc3nc[nH]c23)C(O)C1O (configuration not stated)
inactive: dose: 0.13 mg/kg/injection, schedule: Q01DX009 (ip), vehicle: water 110 % of control | dose: 0.25 mg/kg/injection, schedule: Q01DX009 (ip), vehicle: water 107 % of control | dose: 1.0 mg/kg/injection, schedule: Q01DX009 (ip), vehicle: water 96 % of control | dose: 2.0 mg/kg/injection, schedule: Q01DX009 (ip), vehicle: water 98 % of control

C=C(C)C(=O)OCCN(C)C (tested in a mixture with another compound)
inactive: [13] 100 % of control | [14] 100 % of control | [15] 100 % of control

COc1ccc2c(c1)[C@@]13CCCCC1[C@@H](C2)NCC3 (some centres not stated)
inactive: dose: 100.0 mg/kg/injection, schedule: Q04DX002 (ip), vehicle: Klucel (hydroxypropylcellulose) (HPC) 101 % of control

COc1ccc2cc1-c1cc(ccc1O)CCC(O)CC1CCCC(CC(OC(C)=O)CC2)N1 (configuration not stated)
inactive: dose: 15.0 mg/kg/injection, schedule: Q01DX009 (ip), vehicle: Klucel (hydroxypropylcellulose) (HPC) 107 % of control | dose: 30.0 mg/kg/injection, schedule: Q01DX009 (ip), vehicle: Klucel (hydroxypropylcellulose) (HPC) 100 % of control | dose: 60.0 mg/kg/injection, schedule: Q01DX009 (ip), vehicle: Klucel (hydroxypropylcellulose) (HPC) 100 % of control

CC1=c2c(oc3cc(O)c(Nc4c(C)cc(O)cc4O)c(C)c23)=CC(=O)C1=Nc1c(C)cc(O)cc1O
inactive: dose: 60.0 mg/kg/injection, schedule: Q01DX005 (ip), vehicle: Klucel (hydroxypropylcellulose) (HPC) 95 % of control | dose: 120.0 mg/kg/injection, schedule: Q01DX005 (ip), vehicle: Klucel (hydroxypropylcellulose) (HPC) 89 % of control | dose: 240.0 mg/kg/injection, schedule: Q01DX005 (ip), vehicle: Klucel (hydroxypropylcellulose) (HPC) 95 % of control
